According to ChEMBL document CHEMBL5729489, “Naphthyridinone derivatives and their use in the treatment of arrhythmia” (2022):

Target: T1, Kir3.1/Kir3.4 (Homo sapiens, UniProt P48544+P48549)
T1 sequence (P48549 whole entry): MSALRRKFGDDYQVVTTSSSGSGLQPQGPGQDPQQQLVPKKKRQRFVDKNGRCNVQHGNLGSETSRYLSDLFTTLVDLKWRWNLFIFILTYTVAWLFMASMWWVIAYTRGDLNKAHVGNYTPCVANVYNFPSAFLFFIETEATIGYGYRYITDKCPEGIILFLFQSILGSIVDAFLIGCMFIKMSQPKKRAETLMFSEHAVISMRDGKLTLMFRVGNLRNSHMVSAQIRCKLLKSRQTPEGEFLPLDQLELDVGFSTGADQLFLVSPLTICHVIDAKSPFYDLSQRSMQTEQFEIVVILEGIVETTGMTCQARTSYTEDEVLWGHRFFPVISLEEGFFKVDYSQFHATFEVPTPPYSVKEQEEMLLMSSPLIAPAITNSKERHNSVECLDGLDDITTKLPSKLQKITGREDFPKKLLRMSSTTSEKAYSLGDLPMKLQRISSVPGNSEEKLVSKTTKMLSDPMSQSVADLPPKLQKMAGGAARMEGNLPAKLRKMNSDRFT
T1 sequence (P48544 whole entry): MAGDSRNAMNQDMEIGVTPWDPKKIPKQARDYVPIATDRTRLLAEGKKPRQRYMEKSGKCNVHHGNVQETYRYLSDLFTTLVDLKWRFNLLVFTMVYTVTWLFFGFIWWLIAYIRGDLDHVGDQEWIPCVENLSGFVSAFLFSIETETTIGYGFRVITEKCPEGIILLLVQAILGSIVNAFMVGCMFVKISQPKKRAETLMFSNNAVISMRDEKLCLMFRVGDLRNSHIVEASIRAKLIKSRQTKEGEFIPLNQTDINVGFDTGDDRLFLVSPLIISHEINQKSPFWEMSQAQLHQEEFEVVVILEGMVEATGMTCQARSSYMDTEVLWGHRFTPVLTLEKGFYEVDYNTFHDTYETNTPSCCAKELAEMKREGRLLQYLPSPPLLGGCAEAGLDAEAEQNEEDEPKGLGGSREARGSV
Assay: IonWorks Quattro system: Quattro is controlled using IonWorks v2 software to perform the following steps:a. Add 3.5 ul cells plus 3.5 ul external buffer to wells of Quattro Patch Plateb. Circulate amphotericin B and internal buffer onto cellsc. Apply the following voltage protocol: Pulse 1: 15 mV for 300 milliseconds (ms), followed by Pulse 2: −120 mV for 400 ms, then Pulse 3: −15 mV for 400 ms, and finally Pulse 4: −120 mV to 40 mV over 500 ms (this is a voltage ramp).d. Measure magnitude of inward potassium current at time point between 1200-1220 ms from start of Pulse 1 (i.e. during the voltage ramp phase).e. Add 3.5 ul of diluted compounds (or DMSO) to wells and repeat steps c-d (final compound concentrations are 50 uM to 0.1 uM, for potent compounds 0.5 uM to 0.01 uM and each concentration is tested in quadruplicate—i.e. in 4 separate wells).f. The difference between current magnitude pre vs. post-compound gives a measure of GIRK1/4 inhibition.7. Data analysis:IC50 values are calculated by plotting the percentage of current inhibition (normalized to the DMSO-only control) as a function of compound concentration using standard data analysis software.

SMILES | IC50 [nM]
CS(=O)(=O)NCCOc1ncc(Cl)c2c1c(=O)cc(CO)n2-c1c(Cl)cccc1Cl | 99
O=c1cc(CO)n(-c2c(Cl)cccc2Cl)c2c(Cl)cnc(OCC(CO)CO)c12 | 351
